Assay results: PMC7677376 (Cell Discovery, 2020)

Target: T1, MlaFEDB (Acinetobacter baumannii, UniProt A0A086HZU3)
T1 construct: gene ttg2A
Details: 1 mM vanadate; traps ADP-vanadate at the MlaF ATP sites

T1 sequence (V5V9K5 entry or part of it): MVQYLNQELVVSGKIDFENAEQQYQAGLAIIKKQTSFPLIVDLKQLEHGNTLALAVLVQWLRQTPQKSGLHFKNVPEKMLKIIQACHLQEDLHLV
T1 sequence (V5V9F4 entry or part of it, further chain): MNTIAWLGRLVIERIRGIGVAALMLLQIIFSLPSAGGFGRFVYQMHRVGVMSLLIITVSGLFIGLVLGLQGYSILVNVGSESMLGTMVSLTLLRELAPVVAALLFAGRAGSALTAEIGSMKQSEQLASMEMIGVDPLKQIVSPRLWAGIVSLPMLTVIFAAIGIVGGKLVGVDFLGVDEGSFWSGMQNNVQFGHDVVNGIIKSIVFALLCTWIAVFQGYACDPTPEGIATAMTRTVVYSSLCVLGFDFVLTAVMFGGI
T1 sequence (A0A086HZU3 entry or part of it): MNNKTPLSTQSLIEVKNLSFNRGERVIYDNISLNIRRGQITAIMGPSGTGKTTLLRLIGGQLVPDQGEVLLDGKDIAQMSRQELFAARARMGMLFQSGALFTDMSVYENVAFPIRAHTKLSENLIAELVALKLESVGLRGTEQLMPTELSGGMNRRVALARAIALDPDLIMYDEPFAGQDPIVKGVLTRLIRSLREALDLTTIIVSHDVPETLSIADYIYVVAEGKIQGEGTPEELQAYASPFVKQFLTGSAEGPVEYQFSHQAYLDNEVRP
T1 sequence (V5V921 entry or part of it, further chain): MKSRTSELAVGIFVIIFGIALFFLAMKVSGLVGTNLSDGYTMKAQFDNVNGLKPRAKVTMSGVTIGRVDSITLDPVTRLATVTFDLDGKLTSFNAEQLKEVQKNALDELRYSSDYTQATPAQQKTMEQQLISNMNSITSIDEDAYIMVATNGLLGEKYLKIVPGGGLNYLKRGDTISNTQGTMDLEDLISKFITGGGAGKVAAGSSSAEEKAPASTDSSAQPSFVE

## [O]=[V]([OH])([OH])[OH] [sodium ortho-vanadate]
  % inhibition at 1 mM: ~ 50%
